Values quoted from earlier work, collected in paper PMC11573584, “Thanatin and vinyl sulfide analogues as narrow spectrum antimicrobial peptides that synergise with polymyxin B” (Frontiers in Pharmacology, 2024).
Where two headings read alike, the source gives them in different places. Marks after values point to notes of the source that are not given here.

Legend:
[1] = test system: S. aureus ATCC 25923; conditions: non-cation adjusted media, ref Sinha et al. (2022), cited from earlier work
Text: (§1) TABLE 1 Minimum Inhibitory Concentrations (MICs) of thanatin* (5) and similar analogues against a variety of pathogens. | column: Minimum inhibitory concentration (µM) / Thanatin ^a ^, ^b (1); Minimum inhibitory concentration (µM) / Thanatin M21F ^b (4) || TABLE 2 Minimum Inhibitory Concentrations (MICs) of thanatin* (5) and analogues (8–11) towards a variety of pathogens. | column: Minimum inhibitory concentration (µM) / 1 (Thanatin) ^a

[2] = test system: E. coli ATCC 25922; conditions: non-cation adjusted media, ref Wu et al. (2013); cited from earlier work
Text: as §1, with “S-Thanatin ^a (3)” for “Thanatin M21F ^b (4)”

[3] = test system: P. aeruginosa PAO1; conditions: ref Sinha et al. (2022); cited from earlier work
Text: TABLE 2 Minimum Inhibitory Concentrations (MICs) of thanatin* (5) and analogues (8–11) towards a variety of pathogens. | column: Minimum inhibitory concentration (µM) / 1 (Thanatin) ^a

[4] = test system: P. aeruginosa ATCC 27853; conditions: non-cation adjusted media, ref Sinha et al. (2022); cited from earlier work
Text: (§2) TABLE 1 Minimum Inhibitory Concentrations (MICs) of thanatin* (5) and similar analogues against a variety of pathogens. | column: Minimum inhibitory concentration (µM) / Thanatin ^a ^, ^b (1); Minimum inhibitory concentration (µM) / Thanatin M21F ^b (4)

[5] = test system: E. coli BL21; conditions: non-cation adjusted media, ref Sinha et al. (2022); cited from earlier work
Text: as §2

## Thanatin [Thanatin (1)]
[1]; listed as 1 (Thanatin)
  Minimum inhibitory concentration (MIC): 8 µM
[1]
  Minimum inhibitory concentration (MIC): 8 ^b µM
[2]
  Minimum inhibitory concentration (MIC): 3.2 ^a µM
[3]
  Minimum inhibitory concentration (MIC): 2 µM
[4]
  Minimum inhibitory concentration (MIC): 1 ^b µM
[5]
  Minimum inhibitory concentration (MIC): 0.5 ^b µM
